Measured values taken from patent publication US10144742B2 (Millennium Pharmaceuticals, Inc., priority 2014, dated 2018).

Assays:
hNAMPT protein = hNAMPT protein (Homo sapiens (Human), UniProt P43490); test: NAMPT enzyme assay (TR-FRET/HTRF, BodiPY ligand, anti 6His-Tb); type: binding; conditions: for IC50: NAMPT IC50 range class, read-out: IC50; for inhibition at 1 µM: read-out: Percent Inhibition
Procedure, shortened: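 Compound or DMSO was incubated for 1 h at room temperature, protected from light, with BodiPY ligand and hNAMPT labelled by terbium anti-6His antibody. The 520 nm to 486 nm emission ratio after 320 nm excitation gave inhibition versus vehicle, from which concentration-response curves yielded IC50.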

PC3 cells = test: PC3 growth inhibition (Cell-titer glo, 72 hours); type: cell-based; conditions: compound concentration 1.667 μM, PC3 cells, 72 hours, Cell-titer glo; for inhibition at 1.667 µM: Homo sapiens, PC-3, read-out: Percent Inhibition (PC3 growth inhibition)
Procedure, shortened: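 Compounds in AIM serum-free medium were applied for 72 h at 37 °C, 5% CO2 to PC3 cells plated overnight from RPMI1640 culture. Luminescence after 10 min CellTiter-Glo, normalised to DMSO, gave % viability at 1 μM or 1.667 μM, or GI50/LD50.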

Sequence of hNAMPT protein (P43490 whole entry): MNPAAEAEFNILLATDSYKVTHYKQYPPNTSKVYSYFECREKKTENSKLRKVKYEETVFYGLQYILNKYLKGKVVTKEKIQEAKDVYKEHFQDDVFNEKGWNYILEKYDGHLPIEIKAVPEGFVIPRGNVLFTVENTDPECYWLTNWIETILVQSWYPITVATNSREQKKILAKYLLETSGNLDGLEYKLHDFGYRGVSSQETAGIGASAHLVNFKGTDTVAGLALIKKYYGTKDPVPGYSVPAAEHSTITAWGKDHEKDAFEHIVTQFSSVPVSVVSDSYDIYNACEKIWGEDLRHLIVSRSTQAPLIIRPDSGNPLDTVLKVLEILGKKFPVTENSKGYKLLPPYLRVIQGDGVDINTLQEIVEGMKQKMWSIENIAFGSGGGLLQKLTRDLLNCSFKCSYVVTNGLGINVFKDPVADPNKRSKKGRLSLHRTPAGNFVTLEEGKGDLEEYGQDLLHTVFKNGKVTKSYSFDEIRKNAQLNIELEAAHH

Structure (SMILES)	IC50 (hNAMPT protein) [nM]	inhibition at 1 µM (hNAMPT protein; compound concentration 1 μM) [%]	inhibition at 1.667 µM (PC3 cells) [%]	Percent Inhibition (hNAMPT protein; compound concentration 1 μM) [%]	Percent Inhibition (PC3 growth inhibition) (PC3 cells) [%]
CC(C)Oc1nc2ccc(C(=O)NCCCc3ncc[nH]3)cc2nc1-c1ccc(Cl)s1 [Compound I-334, 3-(5-chloro-2-thienyl)-N-[3-(1H-imidazol-2-yl)propyl]-2-isopropoxyquinoxaline-6-carboxamide]	< 100	> 99	1	–	–
Cc1cc(C)cc(-c2nc3cc(C(=O)NCCCc4ncc[nH]4)ccc3nc2-c2ccc(F)cc2)c1 [Compound I-335, 3-(3,5-dimethylphenyl)-2-(4-fluorophenyl)-N-[3-(1H-imidazol-2-yl)propyl]quinoxaline-6-carboxamide]	100 to 500	85	2	–	–
Cc1ccc(F)cc1-c1nc2cc(C(=O)NCCCc3ncc[nH]3)ccc2nc1-c1ccc(F)cc1 [Compound I-336, 3-(5-fluoro-2-methylphenyl)-2-(4-fluorophenyl)-N-[3-(1H-imidazol-2-yl)propyl]quinoxaline-6-carboxamide]	100 to 500	88	1	–	–
O=C(NCCCc1ncc[nH]1)c1ccc2nc(-c3ccc(F)cc3)c(-c3cc(F)c(F)cc3F)nc2c1 [Compound I-337, 2-(4-fluorophenyl)-N-[3-(1H-imidazol-2-yl)propyl]-3-(2,4,5-trifluorophenyl)quinoxaline-6-carboxamide]	100 to 500	88	3	–	–
CO[C@H]1C[C@H](Oc2nc3ccc(C(=O)NCCCc4ncc[nH]4)cc3nc2-c2ccc(F)cc2)C1 [Compound I-338, 3-(4-fluorophenyl)-N-[3-(1H-imidazol-2-yl)propyl]-2-[(trans-3-methoxycyclobutyl)oxy]quinoxaline-6-carboxamide]	< 100	> 99	1	–	–
CC(C)Oc1nc2ccc(C(=O)NCCCc3ncc[nH]3)cc2nc1-c1ccc(F)c(F)c1 [Compound I-339, 3-(3,4-difluorophenyl)-N-[3-(1H-imidazol-2-yl)propyl]-2-isopropoxyquinoxaline-6-carboxamide]	< 100	91	1	–	–
O=C(NCCCc1ncc[nH]1)c1ccc2nc(-c3ccc(F)cc3)c(-c3cccs3)nc2c1 [Compound I-340, 2-(4-Fluorophenyl)-N-[3-(1H-imidazol-2-yl)propyl]-3-(2-thienyl)quinoxaline-6-carboxamide]	< 100	> 99	3	–	–
CC(C)(C)OCc1nc2ccc(C(=O)NCCCc3ncc[nH]3)cc2nc1-c1ccc(F)cc1 [Compound I-341, N-(3-(1H-imidazol-2-yl)propyl)-2-(tert-butoxymethyl)-3-(4-fluorophenyl)quinoxaline-6-carboxamide]	100 to 500	73	1	–	–
Cc1ccsc1-c1nc2cc(C(=O)NCCCc3ncc[nH]3)ccc2nc1-c1ccc(F)cc1 [Compound I-342, 2-(4-fluorophenyl)-N-[3-(1H-imidazol-2-yl)propyl]-3-(3-methyl-2-thienyl)quinoxaline-6-carboxamide]	< 100	89	3	–	–
CCOc1ccc(F)c(-c2nc3cc(C(=O)NCCCc4ncc[nH]4)ccc3nc2-c2ccc(F)cc2)c1 [Compound I-343, 3-(5-ethoxy-2-fluorophenyl)-2-(4-fluorophenyl)-N-[3-(1H-imidazol-2-yl)propyl]quinoxaline-6-carboxamide]	100 to 500	82	1	–	–
COc1cc(-c2nc3cc(C(=O)NCCCc4ncc[nH]4)ccc3nc2OC(C)C)ccc1F [Compound I-344, 3-(4-fluoro-3-methoxyphenyl)-N-[3-(1H-imidazol-2-yl)propyl]-2-isopropoxyquinoxaline-6-carboxamide]	< 100	–	–	>99	1
CN1CCC(Oc2nc3ccc(C(=O)NCCCc4ncc[nH]4)cc3nc2-c2ccc(F)cc2)CC1 [Compound I-345, 3-(4-fluorophenyl)-N-[3-(1H-imidazol-2-yl)propyl]-2-[(1-methylpiperidin-4-yl)oxy]quinoxaline-6-carboxamide]	< 100	98	2	–	–
CN1CCCCC1COc1nc2ccc(C(=O)NCCCc3ncc[nH]3)cc2nc1-c1ccc(F)cc1 (stereo not drawn) [Compound I-346, 3-(4-fluorophenyl)-N-[3-(1H-imidazol-2-yl)propyl]-2-[(1-methylpiperidin-2-yl)methoxy]quinoxaline-6-carboxamide]	< 100	98	3	–	–
O=C(NCCCc1ncc[nH]1)c1ccc2nc(OCc3cn[nH]c3)c(-c3ccc(F)cc3)nc2c1 [Compound I-347, 3-(4-fluorophenyl)-N-[3-(1H-imidazol-2-yl)propyl]-2-(1H-pyrazol-4-ylmethoxy)quinoxaline-6-carboxamide]	< 100	97	33	–	–
O=C(NCCCc1ncc[nH]1)c1ccc2nc(OCC3COC3)c(-c3ccc(F)cc3)nc2c1 [Compound I-348, 3-(4-fluorophenyl)-N-[3-(1H-imidazol-2-yl)propyl]-2-(oxetan-3-ylmethoxy)quinoxaline-6-carboxamide]	< 100	> 99	3	–	–
CC(Oc1nc2ccc(C(=O)NCCCc3ncc[nH]3)cc2nc1-c1ccc(F)cc1)c1ccccc1 (stereo not drawn) [Compound I-349, 3-(4-fluorophenyl)-N-[3-(1H-imidazol-2-yl)propyl]-2-(1-phenylethoxy)quinoxaline-6-carboxamide]	< 100	91	3	–	–
O=C(NCCCc1ncc[nH]1)c1ccc2nc(-c3ccc(F)cc3)c(-c3cccc(OC(F)(F)F)c3)nc2c1 [Compound I-350, 2-(4-fluorophenyl)-N-[3-(1H-imidazol-2-yl)propyl]-3-[3-(trifluoromethoxy)phenyl]quinoxaline-6-carboxamide]	100 to 500	86	2	–	–
O=C(NCCCc1ncc[nH]1)c1ccc2nc(OCc3ccoc3)c(-c3ccc(F)cc3)nc2c1 [Compound I-351, 3-(4-fluorophenyl)-2-(3-furylmethoxy)-N-[3-(1H-imidazol-2-yl)propyl]quinoxaline-6-carboxamide]	< 100	96	3	–	–
O=C(NCCCc1ncc[nH]1)c1ccc2nc(O[C@@H]3CCOC3)c(-c3ccc(Cl)cc3)nc2c1 [Compound I-352, 3-(4-chlorophenyl)-N-[3-(1H-imidazol-2-yl)propyl]-2-[(3R)-tetrahydrofuran-3-yloxy]quinoxaline-6-carboxamide]	< 100	99	2	–	–
O=C(NCCCc1ncc[nH]1)c1ccc2nc(-c3ccc(F)cc3)c(-c3cc(Cl)ccc3Cl)nc2c1 [Compound I-353, 3-(2,5-dichlorophenyl)-2-(4-fluorophenyl)-N-[3-(1H-imidazol-2-yl)propyl]quinoxaline-6-carboxamide]	< 100	97	2	–	–
COc1ccc(Cl)c(-c2nc3cc(C(=O)NCCCc4ncc[nH]4)ccc3nc2-c2ccc(F)cc2)c1 [Compound I-354, 3-(2-chloro-5-methoxyphenyl)-2-(4-fluorophenyl)-N-[3-(1H-imidazol-2-yl)propyl]quinoxaline-6-carboxamide]	< 100	97	2	–	–
CCOc1cc(-c2nc3cc(C(=O)NCCCc4ncc[nH]4)ccc3nc2-c2ccc(F)cc2)ccc1F [Compound I-355, 3-(3-ethoxy-4-fluorophenyl)-2-(4-fluorophenyl)-N-[3-(1H-imidazol-2-yl)propyl]quinoxaline-6-carboxamide]	< 100	> 99	2	–	–
O=C(NCCCc1ncc[nH]1)c1ccc2nc(OCc3c[nH]cn3)c(-c3ccc(F)cc3)nc2c1 [Compound I-356, 3-(4-fluorophenyl)-2-(1H-imidazol-4-ylmethoxy)-N-[3-(1H-imidazol-2-yl)propyl]quinoxaline-6-carboxamide]	500 to 1000	63	4	–	–
O=C(NCCCc1ncc[nH]1)c1ccc2nc(C3CC3)c(-c3ccc(F)cc3)nc2c1 [Compound I-357, 2-cyclopropyl-3-(4-fluorophenyl)-N-[3-(1H-imidazol-2-yl)propyl]quinoxaline-6-carboxamide]	100 to 500	83	1	–	–
CCCOc1nc2ccc(C(=O)NCCCc3nnc[nH]3)cc2nc1-c1ccc(F)cc1 [Compound I-358, 3-(4-fluorophenyl)-2-propoxy-N-[3-(4H-1,2,4-triazol-3-yl)propyl]quinoxaline-6-carboxamide]	100 to 500	78	3	–	–
CC(C)Oc1nc2ccc(C(=O)NCCCc3ccc(N)nc3)cc2nc1-c1ccc(F)cc1 [Compound I-359, N-[3-(6-aminopyridin-3-yl)propyl]-3-(4-fluorophenyl)-2-isopropoxyquinoxaline-6-carboxamide]	500 to 1000	46	3	–	–
O=C(NCCCc1ncc[nH]1)c1ccc2nc(O[C@H]3CCOC3)c(-c3ccc(Cl)cc3)nc2c1 [Compound I-360, 3-(4-chlorophenyl)-N-[3-(1H-imidazol-2-yl)propyl]-2-[(3S)-tetrahydrofuran-3-yloxy]quinoxaline-6-carboxamide]	< 100	> 99	2	–	–
